Where “and” joins values, the source holds several entries; their conditions need not be identical. Equal values may be shown once.
What was measured:
[1] = system: rats; experiment: rat tail flick pain threshold, subarachnoid space administration; type: in vivo; details: for increase of pain threshold: in an hour
Experimental: The method was testing using the rat experimental system. After anesthesia, the neck skin of a rat was cut. The occcipital membrane was exposed and a hole with 1 mm diameter was made with #5 needle. […] The insertion position of the tube was later confirmed by anatomization after experiment.
Assays were performed in 1-3 days after the operation. 28 rats (130-230 g), of either gender, whose basic pain thresholds were within 2-4 seconds, were chosen and divided randomly into four groups of seven rats.

[2] = system: high-voltage-activated Ca2+ channel expressed in prostaglandin E1 differentiated NG108-15 cells; experiment: Ca2+ channel inhibition assay (patch clamp, Ba2+ as charge carrier); type: cell-based
Experimental: (§1) Ca^2+ channel Inhibition Assay. […] Cells were cultured in 90% Dulbecco's modified Eagle's medium (DMEM) with 10% newborn calf serum, hypoxanthine aminopterin thymidine supplement and penicillin-streptomycin. Cells were transferred to plates for electrophysiological experiments and cultured with 1% calf serum and […] DMEM. Prostaglandin E1 (10 μM) and 3-isobutyl-1-methylxanthine (50 μM) were added to the medium. Macroscopic Ca^2+ channel currents (filtered at 10 kHz, digitized at […] with a EPC-9 patch clamp amplifier, HEKA Electronics, Germany) were recorded at room temperature using Ba^2+ as the charge carrier. Cells were held at −40 mV potential and then depolarized to 0 mV. […] Inhibition was dose dependent. The EC50 for inhibition was approximately 100 nM (EC50≈100 nM). HWAP-I is highly specific for this channel as the low-voltage-activated Ca^2+ channel was unaffected.

[3] = system: Sprague-Dawley rats; details: rat, in vivo
Experimental: Adult Sprague-Dawley rats were anesthetized with 2% sodium pentobarbital (40 mg/kg, ip.). The neck skin was cut to expose the occipital membrane. HWAP-I, formulated in normal saline, was administered by a PE-10 polyethylene tube (14 cm) inserted into the epidural space (depth of insert: 7 cm) to the site of intumescence at the rats' waist. The insertion position of the tube was confirmed by anatomization after the experiment.
Pain tolerance assays were performed 1-4 days after the operation. A healthy rat was put into a fixed canister with its tail drooping from the bottom of the vessel. There were three spots on the tail labeled for irradiation. The intensity of light was adjusted so that the tail flick latency (TFL) of rat was within 2-4 seconds. The average of TFLs determined three times before drug treatment was deemed the baseline pain threshold of the rat. HWAP-I was administered to the rat using the inserted tube. After 20 minutes, the pain threshold was determined. The analgesic effect (AE) was calculated according the following formula: [formula]
wherein Tp is the TLF post-drug treatment, and TB is the baseline pain threshold.
The upper limit of the increased rate of pain threshold was 200% in order to avoid hurting the skin of rat-tail, e.g.., when the baseline pain threshold was 3 seconds. Irradiation was stopped as soon as the TFL exceeded 9 seconds.
54 rats (160-220 g), of either gender, whose TB basic pain thresholds were within 3-4 seconds, were chosen and divided randomly into six groups of nine rats. The rats in each group were treated with HWAP-I at a dose of 120 μg/kg, 180 μg/kg, 240 μg/kg, 300 μg/kg, 360 μg/kg respectively and with normal saline in control group.

[4] = system: low-voltage-activated Ca2+ channel; experiment: Ca2+ channel inhibition assay, low-voltage-activated channel; type: cell-based
Experimental: as §1

[5] = system: New Zealand rabbits; details: rabbit, in vivo
[6] = system: mouse phrenic nerve-diaphragm preparation; experiment: mouse phrenic nerve-diaphragm assay for inhibition of neuromuscular transmission

Row | Compound | duration of analgesic effect compared with morphine hydrochloride (5 μg/kg) ([1]; subarachnoid) | increase of pain threshold ([1]; subarachnoid, 1.5 μg/kg) | duration of analgesic effect ([1]; subarachnoid, 3.0 μg/kg) | increase of pain threshold ([1]; subarachnoid, 3.0 μg/kg) [%] | adverse effects ([1]; subarachnoid, 8 μg/kg, most restored to normal without sequela) | analgesic effect ([1]; subarachnoid, 0.6, 1.5, 3.0 μg/kg) | inhibition of the Ca2+ current ([2]; 10 μM, held at −40 mV, depolarized to 0 mV) | EC50 ([2]; NG108-15 cells, room temperature, read-out: EC50 for inhibition of Ca2+ current) [nM] | adverse effects [3] | analgesic effect [3] | duration time of analgesic effect [3] | increase of pain threshold [3] | effect on low-voltage-activated Ca2+ channel [4] | analgesic effect in formalin pain model [5] | duration of the analgesic effect [5] [h] | toxic side effects [5] | duration of block of neuromuscular transmission ([6]; 1·10^−5 g/ml) [min] | effect on indirect twitch response ([6]; electrical stimulation of phrenic nerve) | analgesic effect decreased from maximum to, within a single hour [3] [%]
1 | NH2-Ala-Cys-Lys-Gly-Val-Phe-Asp-Ala-Cys-Thr-Pro-Gly-Lys-Asn-Glu-Cys -Cys-Pro-Asn-Arg-Val-Cys-Ser-Asp-Lys-His-Lys-Trp-Cys-Lys-Trp-Lys-Leu-COOH (H-ACKGVFDACTPGKNECCPNRVCSDKHKWCKWKL-OH; cysteine pairing not given here) [HWAP-I] | longer than that of morphine | 40-50% | over 3 hours | 100 | becoming ataxic in the quarters | had analgesic effects | potent inhibitor | ~100 | ataxia in the quarters | had analgesic effects | over 3 hours | 50-70% and 100% | unaffected | potent and robust analgesic effect | 5 to 6 | no obvious toxic side effects were observed | 14.3 ± 3.2 | inhibition of the indirect twitch response | –
2 | CN1CC[C@]23c4c5ccc(O)c4O[C@H]2[C@@H](O)C=C[C@H]3[C@H]1C5.Cl [morphine, morphine hydrochloride, reference compound] | – | – | – | – | – | – | – | – | – | – | – | – | – | – | – | – | – | – | 50

— patent US6670329B2, “Selenocosmia huwena toxin and analgesic uses thereof” (priority 2000, dated 2003)
